Data taken from ChEMBL document CHEMBL1131149, “Acetylcholinesterase noncovalent inhibitors based on a polyamine backbone for potential use against Alzheimer's disease” (J Med Chem, 1998).

Assays:
Acetylcholinesterase [1] = target: T1, Acetylcholinesterase (Homo sapiens, UniProt P22303)
Description: Inhibition of acetylcholinesterase (AChE) of human erythrocytes

Cholinesterase = Cholinesterase (Homo sapiens, UniProt P06276)
Description: Inhibition of Butyrylcholinesterase (BChE) of human erythrocytes [-log IC50 (uM)]

Acetylcholinesterase [2] = target: T1, Acetylcholinesterase; remark: listed apart in the source
Description: Inhibition constant determined against Acetylcholinesterase (AChE) receptor.

Sequence of Cholinesterase (P06276 whole entry): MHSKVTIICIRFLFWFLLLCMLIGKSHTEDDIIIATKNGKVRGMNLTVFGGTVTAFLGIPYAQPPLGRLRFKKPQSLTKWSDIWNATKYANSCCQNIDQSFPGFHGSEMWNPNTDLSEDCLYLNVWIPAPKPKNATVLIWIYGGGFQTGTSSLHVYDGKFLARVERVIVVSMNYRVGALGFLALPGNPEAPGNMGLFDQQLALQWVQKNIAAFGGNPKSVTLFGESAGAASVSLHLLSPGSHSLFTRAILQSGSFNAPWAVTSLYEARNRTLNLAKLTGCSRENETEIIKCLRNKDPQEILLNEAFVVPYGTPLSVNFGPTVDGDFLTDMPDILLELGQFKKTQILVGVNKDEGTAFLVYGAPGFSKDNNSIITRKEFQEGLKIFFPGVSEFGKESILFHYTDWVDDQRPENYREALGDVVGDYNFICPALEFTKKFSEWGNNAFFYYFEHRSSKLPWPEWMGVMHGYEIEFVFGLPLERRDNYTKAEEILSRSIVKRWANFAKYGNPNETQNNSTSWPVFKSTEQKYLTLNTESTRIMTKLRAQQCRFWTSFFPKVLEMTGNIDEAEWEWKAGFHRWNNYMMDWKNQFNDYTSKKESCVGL
T1 sequence (P22303 whole entry): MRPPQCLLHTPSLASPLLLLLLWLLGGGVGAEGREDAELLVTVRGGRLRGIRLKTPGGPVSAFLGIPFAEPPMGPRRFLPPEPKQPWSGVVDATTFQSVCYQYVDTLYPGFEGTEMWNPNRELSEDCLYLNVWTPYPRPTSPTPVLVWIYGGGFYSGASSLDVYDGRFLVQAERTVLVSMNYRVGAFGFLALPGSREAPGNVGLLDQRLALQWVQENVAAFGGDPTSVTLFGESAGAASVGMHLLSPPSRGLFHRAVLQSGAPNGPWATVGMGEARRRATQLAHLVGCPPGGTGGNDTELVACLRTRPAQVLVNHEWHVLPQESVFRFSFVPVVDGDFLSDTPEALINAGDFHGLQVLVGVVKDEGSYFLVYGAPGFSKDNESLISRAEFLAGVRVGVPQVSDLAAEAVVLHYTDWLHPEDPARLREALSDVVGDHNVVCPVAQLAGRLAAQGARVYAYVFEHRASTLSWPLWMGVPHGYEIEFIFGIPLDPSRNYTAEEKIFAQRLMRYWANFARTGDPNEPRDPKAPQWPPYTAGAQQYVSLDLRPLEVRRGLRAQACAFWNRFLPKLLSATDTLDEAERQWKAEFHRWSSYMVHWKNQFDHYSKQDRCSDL

| Structure (SMILES) | IC50 (Acetylcholinesterase [1]) | IC50 (Cholinesterase) | Ki (Acetylcholinesterase [2]) |
| --- | --- | --- | --- |
| NCCCCCCNCCSSCCNCCCCCCN | 501 µM | 646 µM | – |
| COc1ccccc1CNCCCCCC(=O)N(C)CCCCCCCCN(C)C(=O)CCCCCNCc1ccccc1OC | 0.309 µM | 6.03 µM | – |
| COc1ccccc1CNCCCCCCNCCCCCNCCCCCCNCc1ccccc1OC | 7.24 µM | 8.71 µM | – |
| COc1ccccc1CNCCCCCC(=O)NCCCCCCCCNC(=O)CCCCCNCc1ccccc1OC | 1.86 µM | 11.5 µM | – |
| COc1ccccc1CNCCCCCCNCCCCCCNCCCCCCNCc1ccccc1OC | 6.46 µM | 1.38 µM | – |
| COc1ccccc1CNCCCCCCNCCCCCCCNCCCCCCNCc1ccccc1OC | – | 3.72 µM | – |
| COc1ccccc1CNCCCCCCNCCSSCCNCCCCCCNCc1ccccc1OC [BENEXTRAMINE] | 7.24 µM | 6.17 µM | – |
| COc1ccccc1CN(C)CCCCCC(=O)N(C)CCCCCCCCN(C)C(=O)CCCCCN(C)Cc1ccccc1OC [CAPROCTAMINE] | 0.17 µM | 11.7 µM | 0.000104 µM |
| COc1ccccc1CNCCCCCCNCCCCCCCCNCCCCCCNCc1ccccc1OC [METHOCTRAMINE] | – | 0.977 µM | – |
